Measurements published in paper PMC12775434, “Ultra-large virtual screening unveils potent agonists of the neuromodulatory orphan receptor GPR139” (Nature Communications, 2025).
“And” between values parts separate entries of the source, which are not always exact repeats. Identical values can stand only once. Like-named read-outs stand apart in the source and are kept apart here.

Molecular target: T1, GPR139 (arrestin-3 recruitment) (Homo sapiens, UniProt Q6DWJ6)
T1 construct: expressed in transfected cells; host or cells: HEK293A (transient, Lipofectamine 2000)
T1 sequence (Q6DWJ6 1-353): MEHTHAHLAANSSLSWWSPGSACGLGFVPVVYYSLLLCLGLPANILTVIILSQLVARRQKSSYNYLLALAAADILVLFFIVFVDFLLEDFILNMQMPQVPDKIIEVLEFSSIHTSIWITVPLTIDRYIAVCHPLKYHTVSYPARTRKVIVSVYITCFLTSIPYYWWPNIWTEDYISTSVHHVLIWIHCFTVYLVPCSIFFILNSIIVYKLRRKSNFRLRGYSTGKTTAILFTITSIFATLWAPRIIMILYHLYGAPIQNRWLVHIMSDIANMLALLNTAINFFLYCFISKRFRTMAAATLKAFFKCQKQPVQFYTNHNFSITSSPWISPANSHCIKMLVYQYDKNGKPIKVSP
Experiment: Arrestin-3 recruitment assay (enhanced bystander BRET), HEK293A
Format: cell-based
Conditions: for Emax: HEK293-A, normalized to JNJ-63533054 (JNJ(S)); for EC50: read-out: pEC50 Arrestin-3 (converted); for Arrestin-3 recruitment: individual replicates
Procedure: Primary screening and pharmacological characterization of compounds were performed using a CHO-K1 cell line that stably expresses human GPR139 (GPR139-CHOk1). The GPR139-CHOk1 cell line was kindly provided by H. Lundbeck A/S, Denmark[24]. GPR139-CHOk1 cells were grown in Ham’s F-12 Kaighn’s Modification Medium (ThermoFisher #21127030) supplemented with 10% dialyzed fetal bovine serum (US origin, ThermoFisher #26400044), 100 units/mL Penicillin-Streptomycin (ThermoFisher #15140122), and 1 mg/mL Geneticin (ThermoFisher #11811031). […] M1R-CHOk1 cells were purchased from The Missouri S&T cDNA Resource Center (#CEM100TN00). M1R-CHOk1 cells were grown in Ham’s F12 Medium (ThermoFisher #21765029) supplemented with 10% fetal bovine serum (Brazilian origin, ThermoFisher #10270106), 100 units/mL Penicillin-Streptomycin, and 0.25 mg/mL Geneticin. HEK293A cells transiently transfected with GPR139 were used for additional pharmacological assessment of signaling pathways activated by GPR139. HEK239A cells were generously provided by Dr. Asuka Inoue, Tohoku University, Japan. HEK293A cells were grown in Dulbecco’s Modified Eagle Medium (ThermoFisher #31966047) supplemented with 10% dialyzed fetal bovine serum and 100 units/mL Penicillin-Streptomycin. Cell lines were maintained at 37 °C in humidified incubator equilibrated with 5% CO2.
The enhanced bystander BRET arrestin recruitment assay developed by the work of Donthamsetti et al.[58] was used to measure the arrestin-3 recruitment by GPR139. HEK293A cells were reverse transfected 20–24 h prior to the assay. 50,000 cells were plated in each well of white opaque tissue culture treated 96-well plates (PerkinElmer #6005680) previously coated with poly-D-lysine. The transfection solutions were prepared as described, and 10 µL transfection solution was mixed with 100 µL cells in each well. The cells in each well were transfected with 6 ng GPR139, 0.6 ng RLuc8-Arrestin3-Sp1, 6 ng GRK5, and 62.5 ng MEMlinker[doubly palmitoylated fragment of GAP43]-Citrine-SH3 using 200 nL Lipofectamine 2000 Transfection Reagent. Each transfection was normalized to 80 ng total DNA with pcDNA3.1. On the day of the experiment, the cells were washed with HEPES buffer and incubated for 2 h in HEPES buffer prior to measurements. Test compounds were diluted in HEPES buffer from DMSO stocks (final DMSO concentration of maximally 0.3%). Renilla luciferase 8 (RLuc8) substrate Coelenterazine h (Cayman Chemical #16894) was diluted in HEPES buffer to 5 µM (final). Coelenterazine h was added, and the cells were incubated for 5 min followed by stimulation with test compounds. Simultaneous dual emission was measured at 535 nm and 475 nm on LUMIstar Omega Microplate Reader (BMG Labtech) at 37 °C over 30 min. The BRET ratio of 535 nm/475 nm (Citrine/RLuc8), reflecting the translocation of arrestin from the cytosol to the membrane, was used to determine the arrestin recruitment. The BRET response-time course area under the curve of the basal response obtained with buffer condition was subtracted from the absolute response at a given test compound concentration, and the responses were normalized to the one obtained with 10 µM JNJ-63533054.
Pharmacological data and statistical analyses were performed in GraphPad Prism v9–10 (Graphpad Software Inc., San Diego, CA), which are also specifically described in the figure and table legends. The functional assay responses were normalized to buffer (0%) and Lundbeck Cmp 1a or JNJ-63533054 (100%), for Ca^2+ and IP1 experiments in the GPR139-CHOk1 stable cell line or Ca^2+, G protein activation, and arrestin-3 recruitment experiments in the HEK293A cells transiently transfected with GPR139, respectively. Data are from at least three independent experiments, unless stated otherwise. Concentration-response curves were fitted applying non-linear regression using the log (agonist) versus response model with variable slope. ANOVA was applied for comparing results and determining statistical significance. […]

Q: `Cc1cscc1-c1nc(CC(=O)N[C@H](C)c2ccccc2)no1` [1.1(R)] was tested. Which Emax did it give?
A: 81 ± 5%

Q: And the EC50 (Supplementary Table 6)?
A: 2.51 µM

Q: What about the Arrestin-3 recruitment (log [compound] M -4.5) of the same molecule?
A: 72 % of JNJ-63533054 and 73 % of JNJ-63533054 and 89 % of JNJ-63533054

Q: What about the Arrestin-3 recruitment (log [compound] M -5.0) of the same molecule?
A: 69 % of JNJ-63533054 and 65 % of JNJ-63533054 (2×)

Q: And the Arrestin-3 recruitment (log [compound] M -5.5)?
A: 54 % of JNJ-63533054 and 40 % of JNJ-63533054 and 41 % of JNJ-63533054

Q: What about the Arrestin-3 recruitment (log [compound] M -6.0) of the same molecule?
A: 36 % of JNJ-63533054 and 10 % of JNJ-63533054 and 17 % of JNJ-63533054

Q: And the Arrestin-3 recruitment (log [compound] M -6.5)?
A: 17 % of JNJ-63533054 and 3.28 % of JNJ-63533054 and 1.44 % of JNJ-63533054

Q: And the Arrestin-3 recruitment (log [compound] M -7.0)?
A: 12 % of JNJ-63533054 and 3.28 % of JNJ-63533054 and 2 % of JNJ-63533054

Q: What about the Arrestin-3 recruitment (log [compound] M -7.5) of the same molecule?
A: 1.13 % of JNJ-63533054 and 0.124 % of JNJ-63533054 and 0.145 % of JNJ-63533054

Q: What does the source list for `C[C@@H](NC(=O)CNC(=O)c1cccc(Cl)c1)c1ccccc1` [JNJ(R), reference compound]?
A: Arrestin-3 recruitment (log [compound] M -4.5): 43 % of JNJ-63533054 and 70 % of JNJ-63533054 and 77 % of JNJ-63533054; Arrestin-3 recruitment (log [compound] M -5.0): 41 % of JNJ-63533054 and 39 % of JNJ-63533054 and 33 % of JNJ-63533054; Arrestin-3 recruitment (log [compound] M -5.5): 37 % of JNJ-63533054 and 35 % of JNJ-63533054 and 17 % of JNJ-63533054; Arrestin-3 recruitment (log [compound] M -6.0): 20 % of JNJ-63533054 and 22 % of JNJ-63533054 and 12 % of JNJ-63533054; Arrestin-3 recruitment (log [compound] M -6.5): 14 % of JNJ-63533054 and 8 % of JNJ-63533054 and 1.75 % of JNJ-63533054; Arrestin-3 recruitment (log [compound] M -7.0): 4 % of JNJ-63533054 and 10 % of JNJ-63533054 and 2 % of JNJ-63533054; Arrestin-3 recruitment (log [compound] M -7.5): 0 % of JNJ-63533054 (2×) and 0.153 % of JNJ-63533054; EC50: 15.8 µM

Q: How did the Emax turn out when `CC(NC(=O)CNC(=O)c1cccc(Cl)c1)c1ccccc1` (centres unmarked) [JNJ-63533054, reference compound] was run?
A: 100 ± 4%

Q: What about the EC50 (Supplementary Table 6) of the same molecule?
A: 0.158 µM

Q: And the Arrestin-3 recruitment (log [compound] M -4.5, listed as JNJ (S))?
A: 94 % of JNJ-63533054 and 101 % of JNJ-63533054 and 107 % of JNJ-63533054

Q: And the Arrestin-3 recruitment (log [compound] M -5.0, listed as JNJ (S))?
A: 95 % of JNJ-63533054 and 99 % of JNJ-63533054 and 103 % of JNJ-63533054

Q: What about the Arrestin-3 recruitment (log [compound] M -5.5, listed as JNJ (S)) of the same molecule?
A: 90 % of JNJ-63533054 and 100 % of JNJ-63533054 and 94 % of JNJ-63533054

Q: What about the Arrestin-3 recruitment (log [compound] M -6.0, listed as JNJ (S)) of the same molecule?
A: 85 % of JNJ-63533054 and 100 % of JNJ-63533054 and 78 % of JNJ-63533054

Q: And the Arrestin-3 recruitment (log [compound] M -6.5, listed as JNJ (S))?
A: 68 % of JNJ-63533054 and 81 % of JNJ-63533054 and 55 % of JNJ-63533054

Q: And the Arrestin-3 recruitment (log [compound] M -7.0, listed as JNJ (S))?
A: 45 % of JNJ-63533054 (2×) and 36 % of JNJ-63533054

Q: What about the Arrestin-3 recruitment (log [compound] M -7.5, listed as JNJ (S)) of the same molecule?
A: 8 % of JNJ-63533054 and 15 % of JNJ-63533054 and 0.123 % of JNJ-63533054

Q: How did the Emax turn out when `Cc1cscc1-c1nc(CC(=O)N[C@@H](C)c2ccccc2)no1` [1.1(S)] was run?
A: 96 ± 1%

Q: What about the EC50 (Supplementary Table 6) of the same molecule?
A: 0.0794 µM

Q: And the Arrestin-3 recruitment (log [compound] M -4.5)?
A: 96 % of JNJ-63533054 and 88 % of JNJ-63533054 and 101 % of JNJ-63533054

Q: And the Arrestin-3 recruitment (log [compound] M -5.0)?
A: 90 % of JNJ-63533054 and 91 % of JNJ-63533054 (2×)

Q: What about the Arrestin-3 recruitment (log [compound] M -5.5) of the same molecule?
A: 89 % of JNJ-63533054 and 102 % of JNJ-63533054 and 91 % of JNJ-63533054

Q: And the Arrestin-3 recruitment (log [compound] M -6.0)?
A: 109 % of JNJ-63533054 and 107 % of JNJ-63533054 and 84 % of JNJ-63533054

Q: And the Arrestin-3 recruitment (log [compound] M -6.5)?
A: 82 % of JNJ-63533054 and 87 % of JNJ-63533054 and 66 % of JNJ-63533054

Q: What about the Arrestin-3 recruitment (log [compound] M -7.0) of the same molecule?
A: 57 % of JNJ-63533054 and 71 % of JNJ-63533054 and 50 % of JNJ-63533054

Q: What about the Arrestin-3 recruitment (log [compound] M -7.5) of the same molecule?
A: 23 % of JNJ-63533054 and 32 % of JNJ-63533054 and 4.63 % of JNJ-63533054
